Experimental data reported in patent US9868737B2, “Pyridino[1,2-A]pyrimidone analogue used as MTOR/P13K inhibitor” (CISEN PHARMACEUTICAL CO., LTD., priority 2014, dated 2018).
Read-outs that look alike come from different tables or passages of the source.

System: MCF-7 cells
Test: In vitro test of cell activity (MCF-7 cells, insulin stimulation, ELISA-One fluorescence)
Assay type: cell-based
Settings: Homo sapiens, MCF7, MCF-7 cells; for inhibition at 0.25 µM: conc. 0.25 μM; for inhibition at 0.5 µM: conc. 0.5 μM; for inhibition at 1 µM: conc. 1 μM
Method: Example In Vitro Tests of Cell Activities Experimental Steps and Methods:
1) MCF-7 cells were inoculated at the density of 2.5×10^4 cells/well into 96-well plates (the culture medium used should be a complete culture medium containing 10% FBS).
2) On the next day, the medium in each well was drawn out. A certain concentration (preliminary screening) or a series of concentration (IC50 test) of compounds were dissolved in a culture medium without serum and added to the 96-well plates to culture cells for 2 hours.
3) Insulin was dissolved in a culture medium without serum, added to the cultured cells and incubated for 30 minutes, wherein the final concentration of insulin was […].
4) A lysis solution was prepared according to the following method during the waiting period for the reaction:
a) Enhancer solution was removed from the refrigerator to melt in advance.
b) Enhancer solution was diluted 10 times with the 5× Lysis Buffer to give a concentrated lysis solution.
c) The concentrated lysis solution was diluted 5 times with double distilled water to give the lysis solution.
5) The medium in each well was completely removed and each well was quickly rinsed with PBS once.
6) 150 μl of the freshly prepared lysis solution was added to each well and shaked at room temperature for 10 minutes.
7) After confirming that all cells were detached, the lysis solution together with the cell fragments was transferred into a 1.5 ml tube.
8) The tube was shaked on vortes mixer to make the lysis solution and cells mix completely and then the mixture was centrifugated at 4° C. under 12000 g for 10 minutes.
9) The number of strips of ELISA-one micro-well plate that is required was calculated. The needless strips were removed from the frame, put back into the storage bag and sealed. Before the strips of micro-well plate were used, 200 μl of double distilled water was used to rinse each well to remove preservative.
10) 50 μl of antibody mixture was added to each well. (The antibody mixture solution was prepared by mixing the medium antibody reagent and the enzyme labeled antibody reagent with an equal proportion. The preparation of antibody mixture didn't need vortex.)
11) 25 μl of cell lysates was added to each well of ELISA-One micro-well plate. The micro-well plate was covered with adhesive sealing film and incubated on a micro-well plate oscillation instrument at room temperature for 1 hour.
12) Each well was rinsed with 150 μl of 1× rinsing buffer 3 times. After the last rinsing, the rinsing buffer in the well was completely removed. If necessary, the 1× rinsing buffer could be allowed to stay in the micro-well plate for up to 30 minutes so that the substrate mixed solution could be prepared during such time period.
13) The substrate mixed solution should be prepared just before each use, 10 μl of the substrate mixed solution was added to each well and the micro-well plate was sealed with tin-foil and incubated on the micro-well plate oscillation instrument at room temperature for 10 minutes.
14) 10 μl of stop solution was added to each well and mixed slightly (5-10 seconds) on the micro-well plate oscillation instrument.
15) The corresponding ELISA-One filter group was assembled and used to read the fluorescence signal intensity.

Row | SMILES | IC50 (read-out: IC50 p-AKT) | inhibition at 0.5 µM (read-out: % inhibition AKT) | inhibition at 0.5 µM (read-out: % inhibition p70s6k) | further results
1 | COc1ncc(-c2cn3c(=O)ccnc3cc2F)cc1NS(=O)(=O)c1ccc(F)cc1Cl [compound 117] | – | 63.7% | 16.6% | –
2 | COc1ncc(-c2cn3c(=O)ccnc3cc2F)cc1NS(=O)(=O)c1cccc(F)c1 [compound 115] | – | 43.6% | 6.5% | –
3 | COc1ncc(-c2ccc3nccc(=O)n3c2C)cc1NS(=O)(=O)c1ccccc1Cl [compound 54] | – | 83.1% | 50.8% | –
4 | COc1ncc(-c2ccc3nccc(=O)n3n2)cc1NS(=O)(=O)c1ccc(F)cc1F [compound 71, 2,4-difluoro-N-(2-methoxy-5-(4-oxo-4H-pyrimido[1,2-b]pyridazin-7-yl)pyridin-3-yl)benzsulfamide] | – | 63.2% | 20.7% | –
5 | COc1ncc(-c2ccc3nccc(=O)n3c2C)cc1NS(=O)(=O)c1cc(F)ccc1F [compound 60] | – | 67.9% | 43.9% | –
6 | COc1ncc(-c2ccc3nccc(=O)n3c2)cc1NS(=O)(=O)c1cnc2ccccc2c1 [compound 38] | ≤ 50 nM | 91.5% | 79.4% | IC50 (read-out: IC50 p-p70S6K): > 250 nM
7 | COc1ncc(-c2ccc3ncc(O)c(=O)n3c2)cc1NS(=O)(=O)c1ccc(F)cc1F [compound 101, 2,4-difluoro-N-(5-(3-hydroxy-4-oxo-4H-pyrido[1,2-a]pyrimidin-7-yl)-2-methoxypyridin-3-yl) benzsulfamide] | – | – | – | inhibition at 0.25 µM (read-out: % inhibition AKT): 25%; inhibition at 0.25 µM (read-out: % inhibition p70s6k): 8.6%
8 | COc1ncc(-c2ccc3nccc(=O)n3n2)cc1NS(=O)(=O)c1cc(F)ccc1F [compound 76] | – | 54.3% | 12.2% | –
9 | COc1ncc(-c2cn3c(=O)ccnc3cn2)cc1NS(=O)(=O)c1ccccc1Cl [compound 51] | – | 64.1% | 13.6% | –
10 | COc1ncc(-c2ccc3nc(C)cc(=O)n3c2)cc1NS(=O)(=O)c1cc(F)ccc1F [compound 226] | – | 14.8% | 4.6% | –
11 | CCOc1ncc(-c2ccc3nccc(=O)n3c2)cc1NS(=O)(=O)c1ccccc1F [compound 29] | – | – | – | inhibition at 1 µM (read-out: % inhibition AKT): 59.6%; inhibition at 1 µM (read-out: % inhibition p70s6k): 26.5%
12 | COc1ncc(-c2ccc3ncc(-n4ccc(C)n4)c(=O)n3c2)cc1NS(=O)(=O)c1ccc(F)cc1F [compound 216, 2,4-difluoro-N-(2-methoxy-5-(3-(3-methyl-1H-pyrazol-1-yl)-4-oxo-4H-pyrido[1,2-a]pyrimidin-7-yl)pyridin-3-yl)benzsulfamide] | – | – | – | inhibition at 0.25 µM (read-out: % inhibition AKT): 34.1%; inhibition at 0.25 µM (read-out: % inhibition p70s6k): 31%
13 | COc1ncc(-c2cn3c(=O)ccnc3cc2C)cc1NS(=O)(=O)c1c(F)cccc1F [compound 125] | – | 23.5% | 5% | –
14 | COc1ncc(-c2cn3c(=O)ccnc3cc2C)cc1NS(=O)(=O)c1ccc(C(F)(F)F)cc1 [compound 130] | – | 2.3% | 2.6% | –
15 | COc1ncc(-c2ccc3ncc(Cl)c(=O)n3c2)cc1NS(=O)(=O)c1nnc(C)s1 [compound 158] | – | – | – | inhibition at 0.25 µM (read-out: % inhibition AKT): -21.8%; inhibition at 0.25 µM (read-out: % inhibition p70s6k): 5.1%
16 | O=c1ccnc2ccc(-c3cnc(Cl)c(NS(=O)(=O)c4ccccc4F)c3)cn12 [compound 19] | ≤ 50 nM | – | – | inhibition at 1 µM (read-out: % inhibition AKT): 91.2%; inhibition at 1 µM (read-out: % inhibition p70s6k): 74.1%; IC50 (read-out: IC50 p-p70S6K): > 250 nM
17 | COc1ncc(-c2ccc3nccc(=O)n3c2C)cc1NS(=O)(=O)c1ccc(F)cc1Cl [compound 56] | – | 80.2% | 53.3% | –
18 | COc1ncc(-c2cn3c(=O)ccnc3cc2C)cc1NS(=O)(=O)c1ccc(F)cc1F [compound 121, 2,4-difluoro-N-(2-methoxy-5-(8-methyl-4-oxo-4H-pyrido[1,2-a]pyrimidin-7-yl)pyridin-3-yl)benzsulfamide] | – | -27.1% | -2.2% | –
19 | COc1ncc(-c2ccc3nc(C)cc(=O)n3c2)cc1NS(=O)(=O)c1ccccc1F [compound 230] | – | 43.5% | 8.8% | –
20 | COc1ncc(-c2cn3c(=O)ccnc3cn2)cc1NS(=O)(=O)c1c(F)cccc1F [compound 46] | – | 60.3% | 13.3% | –

Further lines, with some results ahead:

Row | IC50 (read-out: IC50 p-AKT) | SMILES | inhibition at 0.5 µM (read-out: % inhibition AKT) | inhibition at 0.5 µM (read-out: % inhibition p70s6k) | further results
21 | 50 to 100 nM | CCOc1cnc2ccc(-c3cnc(OC)c(NS(=O)(=O)c4ccc(F)cc4F)c3)cn2c1=O [compound 171, N-(5-(3-ethoxy-4-oxo-4H-pyrido[1,2-a]pyrimidin-7-yl)-2-methoxypyridin-3-yl)-2,4-difluorobenzsulfamide] | – | – | inhibition at 0.25 µM (read-out: % inhibition AKT): 76.3%; inhibition at 0.25 µM (read-out: % inhibition p70s6k): 73.4%; IC50 (read-out: IC50 p-p70S6K): 100 to 250 nM
22 | > 250 nM | COCCOc1cnc2ccc(-c3cnc(OC)c(NS(=O)(=O)c4sccc4C)c3)cn2c1=O [compound 182] | – | – | –
23 | ≤ 50 nM | COCCOc1cnc2ccc(-c3cnc(OC)c(NS(=O)(=O)c4sc(Cl)cc4C)c3)cn2c1=O [compound 196] | – | – | –
24 | ≤ 50 nM | COc1ncc(-c2ccc3ncc(OC4COC4)c(=O)n3c2)cc1NS(=O)(=O)c1sc(C)nc1C [compound 203] | – | – | –
25 | ≤ 50 nM | COc1ncc(-c2ccc3ncc(Cl)c(=O)n3c2)cc1NS(=O)(=O)c1ccc(C)cc1Cl [compound 152] | – | – | inhibition at 0.25 µM (read-out: % inhibition AKT): 94%; inhibition at 0.25 µM (read-out: % inhibition p70s6k): 83.9%; IC50 (read-out: IC50 p-p70S6K): ≤ 50 nM
26 | ≤ 50 nM | COc1ncc(-c2ccc3ncc(Cl)c(=O)n3c2)cc1NS(=O)(=O)c1ccccc1F [compound 137] | 93.3% | 87.1% | IC50 (read-out: IC50 p-p70S6K): 100 to 250 nM
27 | ≤ 50 nM | COc1ncc(-c2ccc3ncc(N)c(=O)n3c2)cc1NS(=O)(=O)c1sccc1C [compound 92] | – | – | –
28 | ≤ 50 nM | COCCOc1cnc2ccc(-c3cnc(OC)c(NS(=O)(=O)c4sc(N)nc4C)c3)cn2c1=O [compound 183] | – | – | –
29 | ≤ 50 nM | COc1ncc(-c2ccc3ncc(OCC4COC4)c(=O)n3c2)cc1NS(=O)(=O)c1ccccc1F [compound 256] | – | – | –
30 | ≤ 50 nM | COCOc1cnc2ccc(-c3cnc(OC)c(NS(=O)(=O)c4ccc(F)cc4F)c3)cn2c1=O [compound 179] | – | – | IC50 (read-out: IC50 p-p70S6K): ≤ 50 nM
31 | ≤ 50 nM | COc1ncc(-c2ccc3ncc(Cl)c(=O)n3c2)cc1NS(=O)(=O)c1ccccc1 [compound 142] | 94.8% | 90.8% | IC50 (read-out: IC50 p-p70S6K): 50 to 100 nM
32 | ≤ 50 nM | COCCOc1cnc2ccc(-c3cnc(OC)c(NS(=O)(=O)c4ccc(C)nc4C)c3)cn2c1=O [compound 192] | – | – | –
33 | ≤ 50 nM | CCc1ccc(S(=O)(=O)Nc2cc(-c3ccc4ncc(OCCOC)c(=O)n4c3)cnc2OC)c(F)c1 [compound 281] | – | – | –
34 | ≤ 50 nM | COc1ncc(-c2ccc3ncc(N)c(=O)n3c2)cc1NS(=O)(=O)c1ccccc1F [compound 90] | 92.7% | 87.9% | IC50 (read-out: IC50 p-p70S6K): 100 to 250 nM
35 | 50 to 100 nM | COCCOc1cnc2ccc(-c3cnc(OC)c(NS(=O)(=O)c4ccc(F)cc4Cl)c3)cn2c1=O [compound 213] | – | – | –
36 | ≤ 50 nM | COc1ncc(-c2ccc3ncc(N)c(=O)n3c2)cc1NS(=O)(=O)c1ccc(F)cc1Cl [compound 88] | 94.8% | 91% | IC50 (read-out: IC50 p-p70S6K): 100 to 250 nM
37 | 100 to 250 nM | COc1ncc(-c2ccc3nccc(=O)n3c2)cc1NS(=O)(=O)c1ccccc1F [compound 2] | – | – | inhibition at 1 µM (read-out: % inhibition AKT): 94.2%; inhibition at 1 µM (read-out: % inhibition p70s6k): 50.8%; IC50 (read-out: IC50 p-p70S6K): > 250 nM
38 | 100 to 250 nM | COc1ncc(-c2ccc3ncc(Cl)c(=O)n3c2)cc1NS(=O)(=O)c1cnc(C)n1C [compound 154] | – | – | inhibition at 0.25 µM (read-out: % inhibition AKT): 85.4%; inhibition at 0.25 µM (read-out: % inhibition p70s6k): 92.6%; IC50 (read-out: IC50 p-p70S6K): 50 to 100 nM
39 | 50 to 100 nM | COCOc1cnc2ccc(-c3cnc(OC)c(NS(=O)(=O)c4sc(N)nc4C)c3)cn2c1=O [compound 184] | – | – | –
40 | ≤ 50 nM | COc1ncc(-c2ccc3ncc(OCC4OCCO4)c(=O)n3c2)cc1NS(=O)(=O)c1sc(C)nc1C [compound 186] | – | – | –
41 | ≤ 50 nM | COc1ncc(-c2ccc3ncc(OC)c(=O)n3c2)cc1NS(=O)(=O)c1sc(C)nc1C [compound 111] | – | – | –
